Assay results published in paper PMC12302229, “Synergy of triazolyl substituents at C1 and C3 of galactose for high-affinity and selective galectin-4C inhibition” (RSC Chemical Biology, 2025).

Tests used:
galectin-4C = molecular target: T1, galectin-4C (Homo sapiens, UniProt P56470); experiment: competitive fluorescence polarization assay, galectin-4C; assay type: binding; conditions: for Kd: fluorescence polarization, x/y cells = only two data points revealed inhibition, both shown, > values estimated, no apparent binding at highest concentration, read-out: Dissociation constants, Galectin-4C
T1 construct: made in house; host or cells: E. coli BL-21 (DE3)
T1 sequence (P56470 185-323): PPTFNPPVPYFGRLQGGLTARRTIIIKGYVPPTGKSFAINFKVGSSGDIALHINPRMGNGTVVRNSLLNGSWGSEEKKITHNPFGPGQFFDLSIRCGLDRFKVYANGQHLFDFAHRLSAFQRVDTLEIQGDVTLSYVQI
Experimental: Affinities of 1c–1z for galectin-1, -3, -4C, -4N, -7, -8C, -8N, -9C, and -9N were measured using an established fluorescence polarization assay[57] with reported probes and conditions.[19]
Recombinant human galectin-4 C-terminal carbohydrate recognition domain was expressed and purified as previously reported.[57,70] Briefly, BL-21 (DE3) E. coli cells containing galectin-4C (amino acid sequence 185–323) was expressed, lysed by sonication and purified by affinity chromatography on a lactosyl-Sepharose column. Galectin-4C protein was eluted using 50 mM β-lactose in PBS, pH 7.4. Galectin-4C was then further gel purified using a Superdex 200/60 column (GE Healthcare) previously equilibrated in PBS, pH 7.4. The peak fractions collected containing galectin-4C were pooled and concentrated to 6.5 mg mL^−1 using an AmiconUltra 3K molecular weight cut-off centrifugal concentrator (Millipore, Billerica, MA, USA) and used directly in crystallisation studies. […]
(§1) triazol-1-yl]-3’-(3,5-di-methoxybenzamido)-1,1’-sulfanediyl-di-β-D-galactopyranoside) concentration of 20 nM, respectively. Inhibitors were dissolved in dimethylsulfoxide (analytical grade) to a concentration of 20 mM, diluted with PBS to 3–6 different concentrations, and tested in duplicate twice for galectin affinity using a competitive fluorescence polarization assay as earlier described.3 The highest inhibitor concentrations tested were 1 mM due to solubility limitations at higher concentration. Dissociation constants average and SEM were calculated from two to eight single point measurements showing between 20–80% inhibition. […]

galectin-3 = molecular target: T2, galectin-3 (Homo sapiens, UniProt P17931); experiment: competitive fluorescence polarization assay, galectin-3; conditions: Kd and SEM from 3–6 single point measurements, > values estimated, no apparent binding at highest concentration, read-out: Dissociation constants, Galectin-3
T2 construct: made in house
T2 sequence (P17931 whole entry): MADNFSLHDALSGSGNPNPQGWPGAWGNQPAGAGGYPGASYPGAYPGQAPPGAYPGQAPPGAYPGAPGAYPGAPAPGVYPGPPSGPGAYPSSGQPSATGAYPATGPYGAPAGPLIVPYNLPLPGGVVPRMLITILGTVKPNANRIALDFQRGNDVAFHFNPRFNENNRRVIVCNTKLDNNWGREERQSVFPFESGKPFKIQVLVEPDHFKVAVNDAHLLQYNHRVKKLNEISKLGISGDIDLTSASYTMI
Experimental: (§2) Affinities of 1c–1z for galectin-1, -3, -4C, -4N, -7, -8C, -8N, -9C, and -9N were measured using an established fluorescence polarization assay[57] with reported probes and conditions.[19] […]
(§3) Fluorescence polarization experiments
(§4) Human galectin-11 and galectin-32 were expressed and purified as earlier described. Fluorescence polarization experiments were performed on a PheraStarFS plate reader with software PHERAstar Mars version 2.10 R3 (BMG, Offenburg, Germany). Specific experimental conditions were a galectin-1 concentration of 0.5 µM together with the fluorescent probe (3,3’-dideoxy-3-[4-(fluorescein-5-yl-carbonylaminomethyl)-1H-1,2,3-triazol-1-yl]-3’-(3,5-di-methoxybenzamido)-1,1’-sulfanediyl-di-β-D-galactopyranoside 1 concentration of 20 nM and a galectin-3 concentration of 0.2 µM together with the fluorescent probe (3,3’-dideoxy-3-[4-(fluorescein-5-yl-carbonylaminomethyl)-1H-1,2,3- […]
as §1

galectin-1 = molecular target: T3, galectin-1 (Homo sapiens, UniProt P09382); experiment: competitive fluorescence polarization assay, galectin-1; assay type: binding; conditions: fluorescence polarization; Kd and SEM from 3–6 single point measurements; read-out: Dissociation constants, Galectin-1
T3 construct: made in house
T3 sequence (P09382 whole entry): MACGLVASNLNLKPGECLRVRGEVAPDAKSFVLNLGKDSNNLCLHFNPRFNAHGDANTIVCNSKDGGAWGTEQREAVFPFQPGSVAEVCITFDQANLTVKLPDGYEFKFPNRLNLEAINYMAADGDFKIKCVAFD
Experimental: as §2, §3, §4, §1

galectin-4N = molecular target: T4, galectin-4N (Homo sapiens, UniProt P56470); experiment: competitive fluorescence polarization assay, galectin-4N; assay type: binding; conditions: Kd and SEM from 3–6 single point measurements, read-out: Dissociation constants, Galectin-4N
T4 construct: called “N” for the N-terminal CRD and “C” for the C-terminal
T4 sequence (P56470 19-150 limits assumed): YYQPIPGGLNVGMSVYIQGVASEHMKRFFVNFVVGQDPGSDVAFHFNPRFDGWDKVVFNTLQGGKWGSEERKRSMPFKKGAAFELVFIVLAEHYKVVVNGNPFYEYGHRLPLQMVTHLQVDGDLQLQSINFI
Experimental: as §2, §1

Compound | Kd (galectin-4C) | galectin-4C selectivity over other galectins (galectin-4C; ratio of Kd) | Kd (galectin-3) | Kd (galectin-1) | Kd (galectin-4N) | fold stronger affinity for galectin-4C compared to galectin-1 and galectin-3 (galectin-4C; ratio of Kd) | fold better galectin-4C affinity compared to 1a–b (galectin-4C; effect of adding the C3 phenyltriazolyl)
OC[C@H]1O[C@@H](Cn2cc(-c3ccc(C(F)(F)F)cc3)nn2)[C@H](O)[C@@H](n2cc(-c3ccccc3)nn2)[C@H]1O [Compound 24b, 1-((4-(1-Phenyl-1H-1,2,3-triazol-4-yl)-1,3-dideoxy-β-D-galactopyranosyl)methyl)-4-(4-(trifluoromethyl)phenyl)-1H-1,2,3-triazole] | 12 ± 1.7 µM | twenty-onefold and up to thirty-sevenfold | 720 ± 78 µM | 440 ± 68 µM | 760 ± 32 µM |  | 
OC[C@H]1O[C@@H](Cn2cc(-c3cc(F)c(F)c(F)c3)nn2)[C@H](O)[C@@H](n2cc(-c3ccccc3)nn2)[C@H]1O [Compound 24d] | 22 ± 2.8 µM |  | 91 ± 2 µM | 240 ± 5 µM | 130 ± 23 µM |  | 
OC[C@H]1O[C@@H](c2cn(-c3ccccc3F)nn2)[C@H](O)[C@@H](n2cc(-c3ccccc3)nn2)[C@H]1O [Compound 16a, 1,3-Dideoxy-1-(1-(2-fluorophenyl)-1H-1,2,3-triazol-4-yl)-3-(4-(phenyl)-1H-1,2,3-triazolyl)-β-D-galactopyranosyl] | 18 ± 2 µM |  | 34 ± 1 µM | 280 ± 39 µM | 90 ± 17 µM |  | 
OC[C@H]1O[C@@H](Cn2cc(-c3ccc(F)cc3)nn2)[C@H](O)[C@@H](n2cc(-c3ccccc3)nn2)[C@H]1O [Compound 24a] | 9.5 ± 1.3 µM | twenty-onefold and up to thirty-sevenfold | 200 ± 32 µM | 220 ± 10 µM | 130 ± 20 µM | 20 fold | 
OC[C@H]1O[C@@H](c2cn(-c3ccccn3)nn2)[C@H](O)[C@@H](n2cc(-c3ccccc3)nn2)[C@H]1O [Compound 16b, 1,3-Dideoxy-1-(1-(2-pyridyl)-1H-1,2,3-triazol-4-yl)-3-(4-(phenyl)-1H-1,2,3-triazolyl)-β-D-galactopyranosyl] | 9.6 ± 2.3 µM |  | 34 ± 3 µM | 180 ± 1 µM | 240 ± 54 µM |  | ≤ 79 fold
